# Laboratory results taken from patent US20240262826A1, “WILD TYPE KIT INHIBITORS” (Blueprint Medicines Corporation, priority 2022, published 2024).
# Tests used:
# wild type c-kit = wild type c-kit (Homo sapiens (Human), UniProt P10721); assay: PathScan phospho c-kit (Tyr719) sandwich ELISA in SCF-stimulated M-07e cells (pKIT assay); format: cell-based; settings: ELISA assay (values not marked *)
# How it was run: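 Serum- and GM-CSF-starved M-07e cells (4 h) pretreated 60 min at 37 °C with an 8-point compound series in duplicate (0.25% DMSO), then stimulated with human SCF (500 ng/mL stock) 10 min at room temperature. Lysate c-kit Tyr719 phosphorylation quantified by sandwich ELISA with TMB read-out; IC50 from 4-parameter logistic fit.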
# [1] = biological target: human P-glycoprotein (P-gp, MDR1) (Homo sapiens (Human), UniProt P08183); assay: MDCK-MDR1 cell monolayer drug transport assay (P-gp efflux ratio); format: in vitro ADME; settings: pH 7.4, MDCK-MDR1 cells; for efflux ratio at 2 h, 1 µM: 1 uM concentration of compound, read-out: Pgp Efflux Ratio, 1 uM
# Experimental: The potential for compounds prepared according to the examples to be substrates of P-gp was evaluated using in vitro on Multidrug Resistance Mutation 1-Mardin-Darby Canine Kidney (MDCK-MDR1)) (Mardin-Darby Canine Kidney) cell monolayers overexpressing P-gp grown on permeable supports.
# Preparation for cell seeding: MDCK-MDR1 cell culture medium consisting of Dulbecco's Modified Eagle's Medium (DMEM) with high glucose and L-glutamine supplemented with: 10% FBS, 0.1 mg/mL of streptomycin, 0.6 μg/mL of Kanamycin sulfate and 100 units of penicillin was prepared. 50 μL of culture medium was added to each well of the Transwell insert. The Transwell insert was removed from the reservoir and 25 mL of culture medium was added. After incubation at 37° C., 5% CO2 for 1 hour, the plates were ready for cell seeding. The cells were cultivated in T-75 flasks in a cell culture incubator set at 37° C., 5% CO2, 95% relative humidity until they reached 80-90% confluence before detaching and splitting. The cultivated cells were rinsed in T-75 flasks with 5 mL PBS and aspirated off, and then 1.5 mL trypsin/EDTA was added and incubated at 37° C. for approximately 5 to 10 minutes or until the cells detach and float. The trypsin/EDTA was inactived by adding excess serum containing medium. The cell suspension was transferred to a conical tube and the cells pelleted by centrifugation at 120×g for 10 minutes. The cells were resuspended in seeding medium at a density of 1.56×10^6 cells/mL. This cell concentration was used to seed 5.45×10^5 cells/cm^2.
# Seeding and feeding of MDCK-MDR1 cells into transwell plates: 50 μL of the above cell suspension was added to each well of a previously prepared Transwell plate and the plate was incubated for 4-8 days, replacing the medium every other day beginning no sooner than 48 hours after initial plating. The medium must be replaced on the day before conducting the experiment, and the procedure for medium changes was carried out as follows. The plate was removed from the incubator and placed in a hood. The medium was aspirated from a reservoir and each Transwell was inserted. 100 μL of culture medium was added to each well of the Transwell inserts and 25 mL of culture medium to reservoir tray. The plate was returned to the incubator.
# Assessment of cell monolayer integrity: When the 4-day cultured MDCK-MDR1 cells reached confluence and were differentiated, the medium was removed from the reservoir and Transwell inserts. 100 μL of prewarmed culture medium was added to each transwell insert and 25 mL was added to the reservoir tray. The electrical resistance across the monolayer was measured using a Millicell Epithelial Volt-Ohm measuring system. The electrical resistance for each well was measured and then the plate was returned to the incubator. TEER values were calculated using this formula: TEER measurement (ohms)×Area of membrane (cm2)=TEER value (ohm cm2). Any monolayer with a TEER value <42 ohms·cm2, indicating poor monolayer formation, was discarded.
# Performing the drug transport assay: The MDCK-MDR1 plate was removed from the incubator and the monolayer was washed, exchanging the volume two times using pre-warmed HBSS (Hank's balanced salt solution) (10 mM HEPES, pH 7.4). The plate was then incubated at 37° C. for 30 minutes. A 1 μM compound working solution was prepared as follows: Added […] of stock solution (10 mM in DMSO) of test compound and control compounds (Metoprolol, Prazosin and Imatinib) in one 96 well plate, then added 98 μL of DMSO into the same well to obtain 0.2 mM stock solutions (note a stock solution was further diluted 1:10 for eventually making a 0.1 uM compound working solution). Transfered 3 μL of 0.2 mM solution into 597 μL of transport buffer in one 96 well plate to prepare the 1 μM compound working solution. The plate was shaken at 1000 rpm for 10 min.
# Chain of wild type c-kit (P10721 26-976): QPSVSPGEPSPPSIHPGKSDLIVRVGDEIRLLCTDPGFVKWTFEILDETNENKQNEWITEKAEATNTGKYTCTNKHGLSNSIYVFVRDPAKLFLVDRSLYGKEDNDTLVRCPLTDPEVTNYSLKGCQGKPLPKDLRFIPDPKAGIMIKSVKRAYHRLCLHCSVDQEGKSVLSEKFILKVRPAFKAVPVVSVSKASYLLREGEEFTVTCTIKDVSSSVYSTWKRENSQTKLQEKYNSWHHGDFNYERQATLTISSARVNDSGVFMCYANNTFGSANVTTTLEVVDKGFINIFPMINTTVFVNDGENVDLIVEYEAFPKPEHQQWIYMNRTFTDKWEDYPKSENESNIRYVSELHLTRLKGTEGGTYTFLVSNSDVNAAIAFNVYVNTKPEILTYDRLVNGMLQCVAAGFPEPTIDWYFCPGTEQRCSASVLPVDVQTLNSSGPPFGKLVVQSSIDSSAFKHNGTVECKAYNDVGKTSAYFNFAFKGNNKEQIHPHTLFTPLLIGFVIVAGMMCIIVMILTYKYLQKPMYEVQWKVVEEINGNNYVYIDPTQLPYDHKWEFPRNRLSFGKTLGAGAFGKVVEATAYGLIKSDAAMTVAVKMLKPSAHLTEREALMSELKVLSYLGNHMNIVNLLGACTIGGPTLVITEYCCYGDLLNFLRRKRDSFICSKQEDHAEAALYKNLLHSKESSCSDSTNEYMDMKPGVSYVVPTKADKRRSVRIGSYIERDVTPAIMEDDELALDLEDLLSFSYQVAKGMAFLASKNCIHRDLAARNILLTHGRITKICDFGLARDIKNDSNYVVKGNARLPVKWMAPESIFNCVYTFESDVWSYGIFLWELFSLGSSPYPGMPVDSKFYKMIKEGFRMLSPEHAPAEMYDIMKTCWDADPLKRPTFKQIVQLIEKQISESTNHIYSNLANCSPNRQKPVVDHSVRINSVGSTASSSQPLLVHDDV
# Chain of human P-glycoprotein (P-gp, MDR1) (P08183 whole entry): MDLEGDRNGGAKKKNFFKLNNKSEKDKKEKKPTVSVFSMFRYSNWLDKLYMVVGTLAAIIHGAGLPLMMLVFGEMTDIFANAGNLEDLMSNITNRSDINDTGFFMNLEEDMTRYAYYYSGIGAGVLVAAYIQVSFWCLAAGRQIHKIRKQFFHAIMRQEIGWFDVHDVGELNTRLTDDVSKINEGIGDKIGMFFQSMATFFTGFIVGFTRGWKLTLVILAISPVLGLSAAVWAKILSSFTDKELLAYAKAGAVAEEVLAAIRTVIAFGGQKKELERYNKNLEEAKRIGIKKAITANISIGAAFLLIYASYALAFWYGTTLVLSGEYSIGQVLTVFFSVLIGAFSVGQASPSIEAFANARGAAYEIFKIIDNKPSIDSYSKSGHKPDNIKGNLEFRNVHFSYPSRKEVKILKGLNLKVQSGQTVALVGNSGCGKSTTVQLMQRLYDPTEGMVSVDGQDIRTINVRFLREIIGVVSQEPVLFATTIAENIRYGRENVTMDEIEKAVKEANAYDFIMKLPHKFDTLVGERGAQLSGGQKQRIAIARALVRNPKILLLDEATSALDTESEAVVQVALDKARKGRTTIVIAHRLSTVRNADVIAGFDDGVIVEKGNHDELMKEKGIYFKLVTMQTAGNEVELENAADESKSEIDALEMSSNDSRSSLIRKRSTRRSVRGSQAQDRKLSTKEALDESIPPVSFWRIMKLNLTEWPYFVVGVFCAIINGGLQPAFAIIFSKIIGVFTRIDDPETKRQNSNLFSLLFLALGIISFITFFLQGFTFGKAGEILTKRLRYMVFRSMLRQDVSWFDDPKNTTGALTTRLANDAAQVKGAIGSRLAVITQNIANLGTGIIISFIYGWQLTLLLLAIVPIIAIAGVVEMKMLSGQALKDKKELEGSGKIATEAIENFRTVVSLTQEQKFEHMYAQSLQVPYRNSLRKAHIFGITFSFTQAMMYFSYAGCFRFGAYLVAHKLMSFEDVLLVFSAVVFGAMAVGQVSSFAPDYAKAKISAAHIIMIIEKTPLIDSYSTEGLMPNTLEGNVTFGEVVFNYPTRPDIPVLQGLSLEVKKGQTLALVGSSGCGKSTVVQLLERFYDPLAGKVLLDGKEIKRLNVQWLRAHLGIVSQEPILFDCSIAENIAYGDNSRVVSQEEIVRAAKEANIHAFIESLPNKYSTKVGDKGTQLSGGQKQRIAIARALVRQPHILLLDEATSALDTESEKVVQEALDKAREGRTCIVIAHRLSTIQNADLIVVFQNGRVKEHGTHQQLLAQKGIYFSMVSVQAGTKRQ
SMILES,IC50 (wild type c-kit) [nM],"efflux ratio at 2 h, 1 µM [1]","efflux ratio at 2 h, 0.1 µM ([1]; 0.1 uM concentration of compound (denoted by **), read-out: Pgp Efflux Ratio)"
"COC[C@@H](O)Cn1cc(-c2ccn3ncc(C(=O)Nc4cc(-c5nnn(C6CC6)n5)c(F)cc4C)c3c2)c(C2CC2)n1 [Example 257, (S)-5-(3-cyclopropyl-1-(2-hydroxy-3-methoxypropyl)-1H-pyrazol-4-yl)-N-(5-(2-cyclopropyl-2H-tetrazol-5-yl)-4-fluoro-2-methylphenyl)pyrazolo[1,5-a]pyridine-3-carboxamide]",0.7,8.9,
"Cc1cc(F)c(-c2nnn([C@H]3C[C@@H](C(F)(F)F)C3)n2)cc1NC(=O)c1cnn2ccc(N3CC(C)(O)C3)cc12 [Example 64, N-(4-fluoro-2-methyl-5-(2-((1s,3s)-3-(trifluoromethyl)cyclobutyl)-2H-tetrazol-5-yl)phenyl)-5-(3-hydroxy-3-methylazetidin-1-yl)pyrazolo[1,5-a]pyridine-3-carboxamide]",3.7,39.3,
"COC(=O)N1CC(n2nnc(-c3ccc(C)c(NC(=O)c4cnn5ccc(NCC(C)(C)OC)cc45)c3)n2)C1 [Example 96, methyl 3-(5-(3-(5-((2-methoxy-2-methylpropyl)amino)pyrazolo[1,5-a]pyridine-3-carboxamido)-4-methylphenyl)-2H-tetrazol-2-yl)azetidine-1-carboxylate]",37.1,9.5,
"Cc1nnn(-c2ccc(C)c(NC(=O)c3cnn4ccc(-c5cnn(CC(C)(C)O)c5)cc34)c2)n1 [Example 209, 5-(1-(2-hydroxy-2-methylpropyl)-1H-pyrazol-4-yl)-N-(2-methyl-5-(5-methyl-2H-tetrazol-2-yl)phenyl)pyrazolo[1,5-a]pyridine-3-carboxamide]",6.9,4.3,
"Cc1cc(Cl)c(NC(=O)c2cnn3ccc(-c4cnn(CC(C)(C)O)c4)cc23)cc1-c1nnn(C2CC2)n1 [Example 227, N-(2-chloro-5-(2-cyclopropyl-2H-tetrazol-5-yl)-4-methylphenyl)-5-(1-(2-hydroxy-2-methylpropyl)-1H-pyrazol-4-yl)pyrazolo[1,5-a]pyridine-3-carboxamide]",1.9,,5
"COC(=O)N1CC(n2nnc(-c3ccc(C)c(NC(=O)c4cnn5ccc(NC[C@H](C)O)cc45)c3)n2)C1 [Example 94, methyl (S)-3-(5-(3-(5-((2-hydroxypropyl)amino)pyrazolo[1,5-a]pyridine-3-carboxamido)-4-methylphenyl)-2H-tetrazol-2-yl)azetidine-1-carboxylate]",131,22.3,
"CCOC(=O)N1CC(n2nnc(-c3ccc(C)c(NC(=O)c4cnn5ccc(NCCOC)cc45)c3)n2)C1 [Example 149, ethyl 3-(5-(3-(5-((2-methoxyethyl)amino)pyrazolo[1,5-a]pyridine-3-carboxamido)-4-methylphenyl)-2H-tetrazol-2-yl)azetidine-1-carboxylate]",38.6,30.1,
"Cc1cc(C#N)c(-c2nnn(C3CC(F)(F)C3)n2)cc1NC(=O)c1cnn2ccc(N3CCOCC3)cc12 [Example 165, N-(4-cyano-5-(2-(3,3-difluorocyclobutyl)-2H-tetrazol-5-yl)-2-methylphenyl)-5-morpholinopyrazolo[1,5-a]pyridine-3-carboxamide]",26.6,6.6,
"Cc1ccc(-c2nnn(C3CN(S(C)(=O)=O)C3)n2)cc1NC(=O)c1cnn2ccccc12 [Example 172, N-(2-methyl-5-(2-(1-(methylsulfonyl)azetidin-3-yl)-2H-tetrazol-5-yl)phenyl)pyrazolo[1,5-a]pyridine-3-carboxamide]",35.4,5.5,
"COC(=O)N1CC(n2nnc(-c3ccc(C)c(NC(=O)c4cnn5ccc(COCC(F)F)cc45)c3)n2)C1 [Example 162, methyl 3-(5-(3-(5-((2,2-difluoroethoxy)methyl)pyrazolo[1,5-a]pyridine-3-carboxamido)-4-methylphenyl)-2H-tetrazol-2-yl)azetidine-1-carboxylate]",18,5.3,
"Cc1nnn(-c2ccc(C)c(NC(=O)c3cnn4ccc(-c5cn(C[C@H]6CNCCO6)nc5C)cc34)c2)n1 [Example 230, (R)-5-(3-methyl-1-(morpholin-2-ylmethyl)-1H-pyrazol-4-yl)-N-(2-methyl-5-(5-methyl-2H-tetrazol-2-yl)phenyl)pyrazolo[1,5-a]pyridine-3-carboxamide]",0.8,116,
"COCCNc1ccn2ncc(C(=O)Nc3cc(-c4nnn([C@H]5C[C@@H](C(F)(F)F)C5)n4)ccc3C)c2c1 [Example 119, 5-((2-methoxyethyl)amino)-N-(2-methyl-5-(2-((1s,3s)-3-(trifluoromethyl)cyclobutyl)-2H-tetrazol-5-yl)phenyl)pyrazolo[1,5-a]pyridine-3-carboxamide or 5-((2-methoxyethyl)amino)-N-(2-methyl-5-(2-((1r,3r)-3-(trifluoromethyl)cyclobutyl)-2H-tetrazol-5-yl)phenyl)pyrazolo[1,5-a]pyridine-3-carboxamide]",2.3,3.9,
"COC[C@@H]1CCN1c1ccn2ncc(C(=O)Nc3cc(-c4nnn(C5CN(C(=O)OC)C5)n4)ccc3C)c2c1 (stereo in doubt) [Example 85, methyl (S)-3-(5-(3-(5-(2-(methoxymethyl)azetidin-1-yl)pyrazolo[1,5-a]pyridine-3-carboxamido)-4-methylphenyl)-2H-tetrazol-2-yl)azetidine-1-carboxylate or methyl (R)-3-(5-(3-(5-(2-(methoxymethyl)azetidin-1-yl)pyrazolo[1,5-a]pyridine-3-carboxamido)-4-methylphenyl)-2H-tetrazol-2-yl)azetidine-1-carboxylate]",25,7.1,
"COC[C@@H](O)Cn1ncc(-c2ccn3ncc(C(=O)Nc4cc(-c5nnn(C6CC6)n5)ccc4Cl)c3c2)c1C [Example 248, (S)-N-(2-chloro-5-(2-cyclopropyl-2H-tetrazol-5-yl)phenyl)-5-(1-(2-hydroxy-3-methoxypropyl)-5-methyl-1H-pyrazol-4-yl)pyrazolo[1,5-a]pyridine-3-carboxamide]",0.6,3.5,
"COC[C@@H](O)Cn1nc(C)c(-c2ccn3ncc(C(=O)Nc4cc(-c5nnn(C)n5)ccc4C)c3c2)c1C [Example 245, (S)-5-(1-(2-hydroxy-3-methoxypropyl)-3,5-dimethyl-1H-pyrazol-4-yl)-N-(2-methyl-5-(2-methyl-2H-tetrazol-5-yl)phenyl)pyrazolo[1,5-a]pyridine-3-carboxamide]",0.8,2.3,
"Cc1ccc(-c2nnn(CCOCC(F)(F)F)n2)cc1NC(=O)c1cnn2ccc(-c3cn[nH]c3)cc12 [Example 197, N-(2-methyl-5-(2-(2-(2,2,2-trifluoroethoxy)ethyl)-2H-tetrazol-5-yl)phenyl)-5-(1H-pyrazol-4-yl)pyrazolo[1,5-a]pyridine-3-carboxamide]",,41,
"Cc1cnn(-c2ccc(C)c(NC(=O)c3cnn4ccc(-c5cnn(C[C@H]6CNCCO6)c5)cc34)c2)n1 [Example 205, (R)—N-(2-methyl-5-(4-methyl-2H-1,2,3-triazol-2-yl)phenyl)-5-(1-(morpholin-2-ylmethyl)-1H-pyrazol-4-yl)pyrazolo[1,5-a]pyridine-3-carboxamide]",,33.1,
